The target of this assay is T1, mGluR5 receptor (pig) (Sus scrofa, UniProt I3LUI7).
T1 construct: 450 μg protein from brain homogenate is incubated with 5 nM ^3[H]-MPEP; from tissue; host or cells: pig brain halves without medulla, cerebellum and pons
Kind of assay: [3H]-MPEP bond in the mGluR5 receptor bond assay (pig brain homogenate). It counts as binding. The note with it: 5 nM [3H]-MPEP; for IC50: pig brain homogenate; for inhibition at 10 µM: 10 μM test compound, 450 μg protein pig brain homogenate, 60 min room temperature. How it is done:
I. Method for Determining the Inhibition of the [^3H]-MPEP Bond in the mGluR5 Receptor Bond Assay
Pig brain homogenate is produced by homogenisation (Polytron PT 3000, Kinematica AG, 10,000 rpm for 90 seconds) of pig brain halves without medulla, cerebellum and pons in buffer pH 8.0 (30 mM Hepes, Sigma, order no. H3375+1 tablet complete to 100 ml, Roche Diagnostics, order no. 1836145) in the ratio 1:20 (brain weight/volume) and differential centrifugation at 900×g and 40,000×g. In each case, 450 μg protein from brain homogenate is incubated with 5 nM ^3[H]-MPEP (Tocris, order no. […]
Thereafter, the batches are filtered with the help of a Brandel Cell Harvester (Brandel, TYP Robotic 9600) on unifilter plates with glass fibre filter mats (Perkin Elmer, order no. 6005177) and subsequently washed with buffer (as above) 3 times with in each case 250 μl per sample. The filter plates are subsequently dried for 60 min at 55° C. 30 μL Ultima Gold™ scintillator (Packard BioScience, order no. 6013159) is subsequently added per well and the samples are measured after 3 hours on the β-counter (Mikrobeta, Perkin Elmer). The unspecific bond is determined by addition of 10 μM MPEP (Tocris, order no. 1212).

The structures appear in SMILES notation.

T1 sequence (I3LUI7 19-1212): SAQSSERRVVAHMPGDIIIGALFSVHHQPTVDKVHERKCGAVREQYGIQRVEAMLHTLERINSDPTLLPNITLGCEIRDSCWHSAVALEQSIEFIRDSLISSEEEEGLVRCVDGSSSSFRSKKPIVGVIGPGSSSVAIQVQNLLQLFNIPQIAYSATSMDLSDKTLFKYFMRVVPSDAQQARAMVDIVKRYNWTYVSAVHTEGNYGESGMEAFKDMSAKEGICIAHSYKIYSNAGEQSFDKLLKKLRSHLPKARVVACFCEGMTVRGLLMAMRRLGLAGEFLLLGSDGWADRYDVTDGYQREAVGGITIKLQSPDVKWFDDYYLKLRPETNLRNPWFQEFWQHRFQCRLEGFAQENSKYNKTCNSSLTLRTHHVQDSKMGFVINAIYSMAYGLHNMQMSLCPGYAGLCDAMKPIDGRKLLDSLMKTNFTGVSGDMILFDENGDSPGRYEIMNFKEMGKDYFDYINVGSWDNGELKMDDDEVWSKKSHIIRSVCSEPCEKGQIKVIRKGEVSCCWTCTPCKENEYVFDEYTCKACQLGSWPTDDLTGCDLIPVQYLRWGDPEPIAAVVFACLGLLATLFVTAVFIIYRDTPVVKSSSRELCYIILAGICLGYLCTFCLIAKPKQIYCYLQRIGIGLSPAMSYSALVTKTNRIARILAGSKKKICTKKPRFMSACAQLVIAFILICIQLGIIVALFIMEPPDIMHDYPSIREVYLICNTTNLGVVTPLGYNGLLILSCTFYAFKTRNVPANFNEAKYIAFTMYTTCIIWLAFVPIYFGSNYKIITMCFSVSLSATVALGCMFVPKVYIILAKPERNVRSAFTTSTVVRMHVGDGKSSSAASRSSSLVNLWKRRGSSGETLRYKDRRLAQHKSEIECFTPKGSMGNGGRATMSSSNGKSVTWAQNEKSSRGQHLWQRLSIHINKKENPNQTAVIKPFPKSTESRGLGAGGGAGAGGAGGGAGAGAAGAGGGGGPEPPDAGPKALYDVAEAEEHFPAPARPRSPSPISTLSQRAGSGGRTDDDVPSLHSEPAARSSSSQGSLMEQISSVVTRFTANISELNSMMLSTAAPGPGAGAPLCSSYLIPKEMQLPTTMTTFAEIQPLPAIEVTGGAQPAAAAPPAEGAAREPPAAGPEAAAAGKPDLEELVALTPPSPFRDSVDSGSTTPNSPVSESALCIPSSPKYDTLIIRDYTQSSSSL

`O=C(C#Cc1cccc(Cl)c1)NCCc1ccccc1` [Example 2, 3-(3-chlorophenyl)-N-phenethylpropiolamide] showed an IC50 of 44 nM.

`O=C(C#Cc1cccc(Cl)c1)NCCc1ccccn1` [Example 3, 3-(3-chlorophenyl)-N-(2-(pyridine-2-yl)ethyl)propiolamide] gave an IC50 of 34 nM. This IC50 and that of the compound before are within 1.5-fold of each other.

On to `O=C(C#Cc1cccc(Cl)c1)NCCc1ccncc1` [Example 4, 3-(3-chlorophenyl)-N-(2-(pyridine-4-yl)ethyl)propiolamide], for which the IC50 stood at 2000 nM.

As for `COc1cccc(C#CC(=O)NCCc2ccccn2)c1` [Example 6, 3-(3-methoxyphenyl)-N-(2-(pyridine-2-yl)ethyl)propiolamide], the inhibition at 10 µM was found to be 82%.

As for `Cc1cc(C#CC(=O)NCCc2ccccn2)ccc1F` [Example 7, 3-(4-fluoro-3-methylphenyl)-N-(2-(pyridine-2-yl)ethyl)propiolamide], the inhibition at 10 µM came out at 82%.

Regarding `O=C(C#Cc1ccccc1F)NCCc1ccccn1` [Example 8, 3-(2-fluorophenyl)-N-(2-(pyridine-2-yl)ethyl)propiolamide], the inhibition at 10 µM came to 70%.

Regarding `O=C(C#Cc1ccccc1)NCCc1ccccn1` [Example 11, 3-phenyl-N-(2-(pyridine-2-yl)ethyl)propiolamide], the inhibition at 10 µM is 81%.

Consider `Cc1cccc(C#CC(=O)NCCc2ccccn2)c1` [Example 18, N-(2-(pyridine-2-yl)ethyl)-3-m-tolyl-propiolamide], for which the inhibition at 10 µM turned out to be 90%.

`O=C(C#Cc1ccc(F)cc1)NCCc1ccccn1` [Example 20, 3-(4-fluoro-phenyl)-N-(2-(pyridine-2-yl)ethyl)propiolamide]: the inhibition at 10 µM stood at 54%.

`O=C(C#Cc1cccs1)NCCc1ccccn1` [Example 25, N-(2-(pyridine-2-yl)ethyl)-3-thiophene-2-yl-propiolamide]: the inhibition at 10 µM was determined as 68%.

`O=C(C#Cc1ccc2[nH]ccc2c1)NCCc1ccccn1` [Example 38, 3-(1H-indol-5-yl)-N-(2-(pyridine-2-yl)ethyl)propiolamide]: the inhibition at 10 µM is 36%.

In the case of `Cc1cc(C#CC(=O)N(C)CCc2ccccc2)ccc1F` [Example 41, 3-(4-fluoro-3-methylphenyl)-N-methyl-N-phenethylpropiolamide], the inhibition at 10 µM stood at 92%.

For `CN(CCc1ccccc1)C(=O)C#Cc1ccccc1F` [Example 42, 3-(2-fluorophenyl)-N-methyl-N-phenethylpropiolamide], the inhibition at 10 µM stood at 90%.

`Cc1cccc(C#CC(=O)N(C)CCc2ccccc2)c1` [Example 46, N-methyl-N-phenethyl-3-m-tolylpropiolamide]: the inhibition at 10 µM stood at 97%.

As to `Cc1ccc(C#CC(=O)N(C)CCc2ccccc2)c(C)c1` [Example 47, 3-(2,4-dimethylphenyl)-N-methyl-N-phenethylpropiolamide], the inhibition at 10 µM worked out at 51%.

In the case of `CN(CCc1ccccc1)C(=O)C#Cc1cccc(C(F)(F)F)c1` [Example 49, N-methyl-N-phenethyl-3-(3-(trifluoromethyl)phenyl)propiolamide], the inhibition at 10 µM was 108%.

Regarding `CN(CCc1ccccc1)C(=O)C#Cc1ccccc1C#N` [Example 55, 3-(2-cyanophenyl)-N-methyl-N-phenethylpropiolamide], the inhibition at 10 µM worked out at 40%.

Consider `Cc1cc(C#CC(=O)NCCc2cccs2)ccc1F` [Example 56, 3-(4-fluoro-3-methylphenyl)-N-(2-(thiophene-2-yl)ethyl)propiolamide], for which the inhibition at 10 µM stood at 54%.

On to `Cc1cccc(C#CC(=O)NCCc2c[nH]c3ccccc23)c1` [Example 57, N-(2-(1H-indol-3-yl)ethyl)-3-m-tolylpropiolamide], for which the inhibition at 10 µM is 91%.

For the compound `COc1cccc(C#CC(=O)NCCc2cccc(Cl)c2)c1` [Example 58, N-(3-chlorophenethyl)-3-(3-methoxyphenyl)propiolamide], the inhibition at 10 µM was 91%.

Take `COc1cccc(C#CC(=O)NCCc2ccc(C)cc2)c1` [Example 59, 3-(3-methoxyphenyl)-N-(4-methylphenethyl)propiolamide]: the inhibition at 10 µM was 57%.

As to `COc1cccc(C#CC(=O)NCCc2ccc(F)cc2)c1` [Example 61, N-(4-fluorophenethyl)-3-(3-methoxyphenyl)propiolamide], the inhibition at 10 µM was 85%.

In the case of `Cc1cc(C#CC(=O)NCCc2cccc(Cl)c2)ccc1F` [Example 62, N-(3-chlorophenethyl)-3-(4-fluoro-3-methylphenyl)propiolamide], the inhibition at 10 µM amounted to 75%.

On to `O=C(C#Cc1ccccc1)NCCc1cccc(Cl)c1` [Example 65, N-(3-chlorophenethyl)-3-phenylpropiolamide], for which the inhibition at 10 µM worked out at 97%.

For the compound `Cc1ccc(CCNC(=O)C#Cc2ccccc2)cc1` [Example 66, N-(4-methylphenethyl)-3-phenylpropiolamide], the inhibition at 10 µM stood at 64%.

Regarding `O=C(C#Cc1ccccc1)NCCc1ccc(F)cc1` [Example 68, N-(4-fluorophenethyl)-3-phenylpropiolamide], the inhibition at 10 µM is 90%.

On to `Cc1cccc(C#CC(=O)NCCc2cccc(Cl)c2)c1` [Example 69, N-(3-chlorophenethyl)-3-m-tolylpropiolamide], for which the inhibition at 10 µM amounted to 107%.

Regarding `Cc1ccc(CCNC(=O)C#Cc2cccc(C)c2)cc1` [Example 70, N-(4-methylphenethyl)-3-m-tolylpropiolamide], the inhibition at 10 µM is 89%.

As to `Cc1cccc(C#CC(=O)NCC(c2ccccc2)c2ccccc2)c1` [Example 71, N-(2,2-diphenylethyl)-3-m-tolylpropiolamide], the inhibition at 10 µM came out at 57%.

In the case of `O=C(C#Cc1ccc(F)cc1)NCCc1ccccc1` [Example 72, 3-(4-fluorophenyl)-N-phenethylpropiolamide], the inhibition at 10 µM came out at 57%.

Turning to `O=C(C#Cc1cccs1)NCCc1cccs1` [Example 73, 3-(thiophene-2-yl)-N-(2-(thiophene-2-yl)ethyl)propiolamide], the inhibition at 10 µM was found to be 76%.

On to `CN(CCc1ccccc1)C(=O)C#Cc1ccc(F)cc1F` [Example 78, 3-(2,4-difluorophenyl)-N-methyl-N-phenethylpropiolamide], for which the inhibition at 10 µM is 69%.

In the case of `COc1cccc(C#CC(=O)N(C)CCc2ccccc2)c1` [Example 80, 3-(3-methoxyphenyl)-N-methyl-N-phenethylpropiolamide], the inhibition at 10 µM worked out at 70%.

Take `COc1cccc(C#CC(=O)NCCc2ccccc2)c1` [Example 81, 3-(3-methoxyphenyl)-N-phenethylpropiolamide]: the inhibition at 10 µM worked out at 79%.

As to `Cc1cc(C#CC(=O)NCCc2ccccc2)ccc1F` [Example 82, 3-(4-fluoro-3-methylphenyl)-N-phenethylpropiolamide], the inhibition at 10 µM came to 69%.

Take `O=C(C#Cc1ccccc1)NCCc1ccccc1` [Example 83, N-phenethyl-3-phenylpropiolamide]: the inhibition at 10 µM is 91%.

On to `Cc1cccc(C#CC(=O)NCCc2ccccc2)c1` [Example 84, N-phenethyl-3-m-tolylpropiolamide], for which the inhibition at 10 µM was found to be 89%.

On to `O=C(C#Cc1cccs1)NCCc1ccccc1` [Example 85, N-phenethyl-3-(thiophene-2-yl)propiolamide], for which the inhibition at 10 µM came out at 79%.

On to `N#Cc1cccc(C#CC(=O)NCCc2ccccc2)c1` [Example 86, 3-(3-cyanophenyl)-N-phenethylpropiolamide], for which the inhibition at 10 µM came out at 86%.

Regarding `COc1cccc(C#CC(=O)NCCc2c[nH]c3ccccc23)c1` [Example 87, N-(2-(1H-indol-3-yl)ethyl)-3-(3-methoxyphenyl)propiolamide], the inhibition at 10 µM worked out at 42%.

For the compound `O=C(C#Cc1ccc(F)cc1)NCCc1cccc(Cl)c1` [Example 89, N-(3-chlorophenethyl)-3-(4-fluorophenyl)propiolamide], the inhibition at 10 µM was found to be 64%.

Turning to `O=C(C#Cc1ccc(F)cc1)NCCc1ccc(F)cc1` [Example 92, N-(4-fluorophenethyl)-3-(4-fluorophenyl)propiolamide], the inhibition at 10 µM worked out at 42%.

On to `O=C(C#Cc1cccc(Cl)c1)NCCc1cccc(Cl)c1` [Example 93, N-(3-chlorophenethyl)-3-(3-chlorophenyl)propiolamide], for which the inhibition at 10 µM is 89%.

Turning to `O=C(C#Cc1cccs1)NCCc1cccc(Cl)c1` [Example 94, N-(3-chlorophenethyl)-3-(thiophene-2-yl)propiolamide], the inhibition at 10 µM turned out to be 84%.

Consider `Cc1ccc(CCNC(=O)C#Cc2cccs2)cc1` [Example 95, N-(4-methylphenethyl)-3-(thiophene-2-yl)propiolamide], for which the inhibition at 10 µM is 75%.

With `O=C(C#Cc1cccs1)NCC(c1ccccc1)c1ccccc1` [Example 96, N-(2,2-diphenylethyl)-3-(thiophene-2-yl)propiolamide], the inhibition at 10 µM was 31%.

Take `Cc1ccc(CCNC(=O)C#Cc2cccc(C#N)c2)cc1` [Example 97, 3-(3-cyanophenyl)-N-(4-methylphenethyl)propiolamide]: the inhibition at 10 µM was 96%.

As to `N#Cc1cccc(C#CC(=O)NCC(c2ccccc2)c2ccccc2)c1` [Example 98, 3-(3-cyanophenyl)-N-(2,2-diphenylethyl)propiolamide], the inhibition at 10 µM amounted to 40%.

The term IC50 denotes the concentration that inhibits the measured activity by half. One may read the inhibition as the relative decrease from the control value, in per cent.

Values taken from US20090182020A1, “SUBSTITUTED BIS(HETERO)AROMATIC N--ETHYLPROPIOLAMIDES AND USE THEREOF FOR PRODUCTION OF MEDICAMENTS” (GRUNENTHAL GMBH, priority 2005, published 2009).
